Source: patent publication US11643419B2, “Compositions and methods for the treatment of xerostomia” (Cellix Bio Private Limited, priority 2016, dated 2023)
≈ marks a conversion by molar mass, not a printed value. Where two headings read alike, the source gives them in different places.

How the values were obtained:
[1] = system: oral pathogenic microorganisms; conditions: cited from earlier work; for antimicrobial activity (in words): among long-chain fatty acids / against various oral microorganisms
Candida Species [2] = assay: MIC against Candida Species; assay type: cell-based; conditions: printed conversion of 0.45 μmoles/ml
C. albicans = conditions: cited from earlier work
Candida Species [3] = conditions: cited from earlier work

For `CCCCC/C=C\C/C=C\C/C=C\CCCCC(=O)O` [GLA, gamma linoleic acid], the “antimicrobial activity (in words)” value [1] is given as “antimicrobial activities”, the “antimicrobial activity (in words)” value ([1]; listed as 7-linoleic acid) is given as “greatest antimicrobial activity” and the “antimicrobial activity (in words)” value ([1]; listed as gamma linoleic acid) is given as “significant anti-microbial activity”. For the same molecule, the “bactericidal at a concentration of” value ([1]; n-6 fatty acids GLA) was 25 µg/mL.

In the case of `CCCCC/C=C\C/C=C\CCCCCCCC(=O)O` [Linoleic acid], the MIC (Candida Species [2]) is listed as 0.13 mg/L (≈ 0.464 µM), the “activity against C. albicans” value (C. albicans) is listed as under 40% and the MIC (Candida Species [3]) is listed as 450 µM (≈ 126 µg/mL). For the same molecule, the “antimicrobial activity (in words)” value [1] was “greatest antimicrobial activity” and the “bactericidal at a concentration of” value ([1]; linoleic acid) was 25 µg/mL.

In the case of `CCCCC/C=C\C/C=C\C/C=C\C/C=C\CCCC(=O)O` [arachidonic acid], the “antimicrobial activity (in words)” value [1] is given as “greatest antimicrobial activity”.

For `CCCCCCCCCCCCCCCC(=O)O` [palmitic acid], the “antimicrobial activity (in words)” value [1] is given as “greatest antimicrobial activity”.

For `CCCCCC/C=C\CCCCCCCC(=O)O` [palmitoleic acid], the “antimicrobial activity (in words)” value [1] is listed as “greatest antimicrobial activity”.
